Reference: patent publication US11642345B2, “Replication stress pathway agent compositions and methods for treating cancer” (Boundless Bio, Inc., priority 2020, dated 2023)
Each block holds one compound with its values, some of them ahead of it.

What was measured:
SKBR3 cells [1] = assay: Long-term growth curves under targeted inhibitor; type: cell-based; conditions: SKBP3, ERBB2 Chromosomal; 2× then 4× the relative EC50, 6 weeks
Procedure: (§1) To measure growth kinetics over time, each cell line was treated once or twice per week with targeted inhibitor against the amplified oncogene.

Calu-3 cells [2] = assay: Long-term growth curves under targeted inhibitor; type: cell-based; conditions: Calu3, ERBB2 Chromosomal; 2× then 4× the relative EC50, 6 weeks
Procedure: as §1

H2170 cells = assay: 5 day viability assay, CellTiter-Glo 2.0; type: cell-based; conditions: Homo sapiens, NCI-H2170
Procedure: (§2) For these long-term growth curves, the EC50 of targeted therapy was first determined in short term 5 day viability assays. To determine the EC50 of irbinitinib, H2170 cells were plated at 3000 cell/well in a 96-well plate; SKBR3 and Calu-3 cells were plated at 3500 cells/well in a 96-well plate. All cells were dosed with irbinitinib continuously for 5 days (serial dilutions ranging from 12 nM to 1 uM) along with a DMSO control. EC50 curves were determined based on cell viability using CellTiter-Glo 2.0 reagent (Promega). […]

SKBR3 cells [3] = assay: 5 day viability assay, CellTiter-Glo 2.0; type: cell-based; conditions: Homo sapiens, SK-BR-3; SKBP3, ERBB2 amplification, Chromosomal; read-out: 3-5 day acute cytotoxicity EC50
Procedure: as §2

Calu-3 cells [4] = assay: 5 day viability assay, CellTiter-Glo 2.0; type: cell-based; conditions: Homo sapiens, Calu3, ERBB2 amplification, Chromosomal, read-out: 3-5 day acute cytotoxicity EC50
Procedure: as §2

SNU16 cells [5] = assay: Long-term growth curves under targeted inhibitor; type: cell-based, human; conditions: infigratinib at EC90 (1 uM), 6 weeks
Procedure: as §1

KATOIII cells [6] = assay: Long-term growth curves under targeted inhibitor; type: cell-based; conditions: infigratinib at EC90 (1 uM), 11 weeks
Procedure: as §1

SNU16 cells [7] = assay: 5 day viability assay, CellTiter-Glo 2.0; type: cell-based; conditions: Homo sapiens, SNU-16
[8] = system: MYC, FGFR2, and EGFR copy number in SNU16 cells; assay: qPCR gene copy number in SNU16 cells during infigratinib treatment; type: cell-based, human; conditions: 1 μM infigratinib for 9 weeks
Procedure: The SNU16 cells were treated with 1 μM of an FGFR inhibitor (infigratinib) for 9 weeks. DNA was collected at days 3, 14, 28, 42, 56, and 63 days and qPCR was performed to assess copy number for MYC. FGFR2, and EGFR at each time point. Cells after 8 weeks of infigratinib treatment and untreated SNU16 control cells were also assayed by FISH for EGFR.
To assess ecDNA copy number dynamics throughout the development of infigratinib resistance, DNA was extracted using the QIAamp DNA Mini Kit (Qiagen) and the DNA was amplified via quantitative PCR (qPCR) using Taqman copy number assays (ThermoFisher). The EGFR Taqman assay ID was Hs00997424_cn; GFGR2 assay ID was Hs05182482_cn; and the MYC assay ID was Hs03660964_cn. The cycle threshold values were normalized to the internal RNase P Taqman assay, and gene copy number was calculated using the ΔΔCt method and the DNA from a diploid control cell line, DLD1.
Methods: SNU16 control cells were cultured in RPMI-1640 media with 10% FBS under standard tissue culture conditions at 37° C. and with 5% CO2. Low passage control cells were treated with 1 μM infigratinib over the course of 9 weeks. Cells were passaged as needed and media and infigratinib were replaced at least once per week. DNA was collected at day 3 and weeks 2, 4, 6, 8 and 9. Cells in metaphase were collected at 8 weeks from both control and infigratinib-resistant cells.

SNU16 cells [9] = assay: Long-term cell growth / resistance development in SNU16 cells; type: cell-based, human; conditions: for cell growth / resistance formation: 9 weeks
Procedure: Each treatment arm was terminated once the cell number reached 5×10^6.
SNU16 cells were subdivided into five groups and each group of 1×10^6 cells was subjected to treatment with 1 μM infigratinib, 1 μM erlotinib, 1 μM infigratinib and 1 μM erlotinib, 0.1 μM adavosertib and cell growth was recorded over 9 weeks.
SNU16 cells were subdivided into five groups and each group of 1×10^6 cells was subjected to treatment with infigratinib, erlotinib, PD00017273, infigratinib and erlotinib, or infigratinib and PD00017273 and cell growth was recorded over 9 weeks.
SNU16 (CRL-5974) cell line was purchased from ATCC. SNU16 cells were grown in RPMI 1640 medium (Fisher Scientific) with 10% FBS and 100 U/ml penicillin/streptomycin (Fisher Scientific). For the resistance experiments, SNU16 cells were plated at 2 million per T75 flask and were treated with either 1 μM infigratinib (Selleck Chemicals), 1 μM erlotinib (Selleck Chemicals), 10 nM gemcitabine (Sigma Aldrich), or a combination. The media was changed and fresh drug was added at least once per week. The cells were counted over the span of several weeks to measure cell growth.

KATOIII cells [10] = assay: 5 day viability assay, CellTiter-Glo 2.0; type: cell-based; conditions: Homo sapiens, KATO III
[11] = system: infigratinib-resistant SNU16 cells; assay: Secondary resistance, cell growth of infigratinib-resistant SNU16 cells over 5 weeks; type: cell-based, human; conditions: FIG. 26, 1 uM infigratinib, 1 uM erlotinib, 10 nM gemcitabine
Procedure: The infigratinib-resistant SNU16 cells (generated as shown in FIG. 25) were subdivided into six groups and each group of 1×10^6 cells was subjected to treatment with 1 uM infigratinib, 1 uM erlotinib, 10 nM gemcitabine, or 1 uM erlotinib+10 nM gemcitabine and the cell growth was recorded over 5 weeks. Each treatment arm was terminated once the cell number reached 5×10^6.

[12] = system: ecDNA+ (Colo320 DM) and ecDNA− (Colo320 HSR) cells; assay: p-RPA32 S4/S8 foci by immunofluorescence after CHK1i (FIG. 41B); type: cell-based; conditions: 16 hr treatment
Description: Increased Chk1 phosphorylation at S345 indicates higher activation of RS-activated ATR kinase, while increased gH2AX indicates increased damage resulting from DNA double stranded breaks triggered by replication stress. […] Hyperphosphorylated form of Replication Protein A (RPA) 32 Ser4/Ser8 was detected by immunofluorescence in fixed ecDNA+ (Colo320 DM) and ecDNA− (Colo320 HSR) cell line models that were previously treated with CHK1 i GDC-0575 for 16 hr. Representative bar graph represents % total nuclei positive for P-RPA32 S4/S8 foci (minimum threshold of >3 puncta/nuclei) detected by immunofluorescence in ecDNA+ and ecDNA− cells.

HeLa cells = assay: HeLa cell confluence by high-content microscopy over three weeks, with or without 100 nM methotrexate; type: cell-based; conditions: three weeks
Procedure: Cell confluence was measured via high-content microscopy over the time course.
HeLa cells were treated with a WEE1 inhibitor, 0.01-0.3 μM adavosertib alone, with 1 nM-100 nM PD0166285, with 100 nM methotrexate alone, or with a combination of 0.01-0.3 μM adavosertib and 100 nM methotrexate or a combination of 1 nM-100 nM PD0166285 and 100 nM methotrexate over the course of three weeks. Cell confluence was measured via high-content microscopy over the time course.
HeLa cells were treated with a PARG inhibitor, 3-100 μM PD00017273 with (FIG. 35 top panel) or without (FIG. 35 bottom panel) 100 nM methotrexate over the course of 3 weeks. Cell confluence was measured via high-content microscopy over the time course.
Cell confluence was measured via high-content microscopy over the time course. […] However.

[13] = system: HeLa ecDNA+ and HeLa ecDNA− cells; assay: HeLa ecDNA+ vs ecDNA− response to Chk1 inhibition, RS and DNA damage markers (FIG. 41A); type: cell-based
[14] = system: ecDNA+ (COLO320-DM) cells; assay: IC-90 and IC-70 doses of RNRi in COLO320-DM cells; type: cell-based
Procedure: (§3) FIGS. 40A-40C show inhibition of RNR blocks nucleotide synthesis causing enhanced replication stress and reduced cellular transformation in ecDNA+ compared to ecDNA-tumor cells. […] In FIG. 40A, to evaluate cellular transformation, an in vitro soft agar colony formation assay was conducted wherein ecDNA bearing COLO320-DM and SNU16 cell models were grown alongside ecDNA− cell models, COLO320-HSR and DLD1 in this 3D-format assay for 21 days. Cells were treated individually only once on the day of the seeding of cells at increasing doses of RNRi, (5-chloro-2-[[rac-(1S,2R)-2-(6-fluoro-2,3-dimethyl-phenyl)-1-(2-oxo-3H-1,3,4-oxadiazol-5-yl)propyl]sulfamoyl]benzamide). In FIG. 40B, to determine change in ecDNA carrying MYC amplified oncogene counts, ecDNA+ (COLO320-DM) cells were treated with an IC-90 dose (10 uM) of RNRi for 21 days. Cells in log-growth phase were arrested in metaphase. FISH (Florescent in-situ hybridization) for MYC oncogene was performed on the fixed metaphase spreads and the nuclei were counterstained with DAPI. […] Cells were lysed and immunoblotted with pRPA32-S33 antibody as a marker of ssDNA-damage induced replication stress.

[15] = system: COLO320-DM and SNU16 (ecDNA+), COLO320-HSR and DLD1 (ecDNA−) cell models; assay: In vitro soft agar colony formation assay, 21 days, RNRi (FIG. 40A); type: cell-based; conditions: treated once on day of seeding, increasing doses
Procedure: as §3

EC90 (H2170 cells): 0.5 µM
Structure (SMILES): Cc1cc(Nc2ncnc3ccc(NC4=NC(C)(C)CO4)cc23)ccc1Oc1ccn2ncnc2c1 [irbinitinib]
Long-term culture growth properties (SKBR3 cells [1]): <1% viability >6 weeks
Long-term culture growth properties (Calu-3 cells [2]): Reduced proliferation
EC50 (H2170 cells; H2170, ERBB2 amplification, ecDNA, read-out: 3-5 day acute cytotoxicity EC50): 0.11 µM
EC50 (SKBR3 cells [3]): 0.043 µM
EC50 (Calu-3 cells [4]): 0.414 µM

EC90 (SNU16 cells [7]; SNU16): 1 µM
Structure (SMILES): CCN1CCN(c2ccc(Nc3cc(N(C)C(=O)Nc4c(Cl)c(OC)cc(OC)c4Cl)ncn3)cc2)CC1 [infigratinib]
Long-term culture growth properties (SNU16 cells [5]): Near normal
Long-term culture growth properties (KATOIII cells [6]): <1 viability >10 weeks
EC50 (SNU16 cells [7]; SNU16, ecDNA, read-out: 3-5 day acute cytotoxicity EC50): 0.014 µM
copy number for MYC and FGFR2 [8]: remained relatively constant
copy number of EGFR [8]: increased
cell growth / development of primary resistance (SNU16 cells [9]; FIG. 25, 12 weeks, 1 uM infigratinib, 1 uM erlotinib, 10 nM gemcitabine): strongly suppressed cell growth for 5 weeks, after which cells developed resistance and grew rapidly
cell growth / resistance formation (SNU16 cells [9]; FIG. 30, 1 μM infigratinib, 1 μM erlotinib, 0.1 μM adavosertib): transient growth suppression
cell growth / resistance formation (SNU16 cells [9]; FIG. 34): transient growth suppression for approximately 3 weeks
EC90 (KATOIII cells [10]): 1 µM
EC50 (KATOIII cells [10]; Chromosomal, read-out: 3-5 day acute cytotoxicity EC50): 0.013 µM
cell growth / development of secondary resistance [11]: no effect on cell growth on its own

Structure (SMILES): N[C@@H]1CCCN(c2c(Br)cnc3[nH]cc(NC(=O)C4CC4)c23)C1 [GDC-0575]
pRPA levels (% total nuclei positive for P-RPA32 S4/S8 foci) [12]: increases pRPA levels in ecDNA+ (DM) cells vs. matched ecDNA− (HSR) cells
development of methotrexate resistance (HeLa cells; in combination with 100 nM methotrexate): prevented development of methotrexate resistance
cell growth (cell confluence), agent alone (HeLa cells; 10 nM GDC-0575, 100 nM methotrexate, 300 nM-10 μM AZD6738): no effect on cell growth
induction of markers of RS and DNA damage (Chk1 phosphorylation at S345, gH2AX) ([13]; 200 nM for 24 h): much stronger induction of markers of RS and DNA damage than ecDNA− cells
sensitivity of HeLa ecDNA+ over HeLa ecDNA− cells ([13]; HeLa ecDNA+ grown in 1 uM methotrexate): increased sensitivity

IC90 ([14]; Homo sapiens, COLO 320DM): 10 µM
Structure (SMILES): Cc1ccc(F)c([C@@H](C)[C@H](NS(=O)(=O)c2ccc(Cl)cc2C(N)=O)c2n[nH]c(=O)o2)c1C (racemic) [5-chloro-2-[[rac-(1S,2R)-2-(6-fluoro-2,3-dimethyl-phenyl)-1-(2-oxo-3H-1,3,4-oxadiazol-5-yl)propyl]sulfamoyl]benzamide]
IC-70 dose [14]: 7 µM
cellular transformation, replication stress [15]: enhanced replication stress and reduced cellular transformation in ecDNA+ compared to ecDNA(−) tumor cells
